The text below walks through data of ChEMBL document CHEMBL1201862, “PubChem BioAssay data set” (2004).

Common to all, as to assay: NCI tumour cell line growth inhibition, 48 h
In assay [1] the test system is A549.
Assay [2] has as its system COLO 205.
Assay [3] relates to EKVX.
The test system of assay [4] is HCT-15.
In assay [5] the test system is IGROV-1.
Assay [6] relates to K562.
The subject of assay [7] is KM12.
The subject of assay [8] is LOX IMVI.
The subject of assay [9] is MDA-MB-231.
Assay [10] concerns MDA-MB-435.
For assay [11], the system named is NCI-H226.
In assay [12] the test system is NCI-H460.
In assay [13] the test system is OVCAR-4.
For assay [14], the system named is OVCAR-5.
Assay [15] has as its system SF-268.
The subject of assay [16] is SF-295.
Assay [17] concerns SK-MEL-28.
In assay [18] the test system is SK-OV-3.
Assay [19] concerns SN12C.

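1) Cells in 96-well plates. 2) Compound, 48 h, 5 concentrations. 3) Linear interpolation between surrounding doses. 4) Unreached endpoint = highest concentration. Here, GI50 denotes the concentration required for 50% inhibition of growth.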 Calls of active or inactive are those of the source. No stated cut-off is given here; in the data, active = GI50 up to about 1.1 µM and inactive = higher.

Turning to `C(=N\c1ccc(-c2nc3ccccc3[nH]2)cc1)/c1cccs1`, the GI50 in [1] was > 100 µM (inactive); in assay [2], 97.5 µM (inactive); in [3], > 100 µM (inactive); in assay [4], 84.9 µM; in [5] it was 19.8 µM (inactive); in [6], 81.7 µM (inactive). The GI50 is 58.1 µM (inactive) in assay [7]; > 100 µM (inactive) in [8]; 51.4 µM (inactive) in [9]; > 100 µM (inactive) in assay [10]; > 100 µM (inactive) in assay [11]; > 100 µM (inactive) in [12]. The GI50 in [13] was > 100 µM (inactive); in assay [14], > 100 µM (inactive); in [15] it was > 100 µM (inactive); in assay [16] it was 75.7 µM (inactive); in assay [17] it was > 100 µM (inactive); in assay [18], > 100 µM (inactive). In assay [19], the GI50 was > 100 µM (inactive).

With `CSC(=N/C=C/c1ccccc1)SC`, the GI50 in [1] was 60.3 µM (inactive); in [2], > 100 µM (inactive); in [3] it was > 100 µM (inactive); in assay [4], more than 100 µM; in assay [5] it was 73.6 µM (inactive); in assay [6], 72.8 µM (inactive). The GI50 in assay [7] is > 100 µM (inactive); in [8] it was 50.5 µM (inactive); in assay [9], > 100 µM (inactive); in assay [10], 76.7 µM (inactive); in assay [11], > 100 µM (inactive); in assay [12], > 100 µM (inactive). The GI50 in [13], in assay [14], in assay [15], in assay [16], in assay [17] and in [18] was > 100 µM (inactive) throughout. Besides, the GI50 in assay [19] was > 100 µM (inactive).

For the compound `NS(=O)(=O)c1ccc(/N=N/c2cc3ccccc3c(C(=O)O)c2O)cc1`, the GI50 is > 52.7 µM (inactive) in [1]; > 58.6 µM (inactive) in [2]; > 100 µM (inactive) in assay [3]; more than 49.7 µM in [4]; 41.6 µM (inactive) in assay [5]; > 100 µM (inactive) in assay [6]. Besides, the GI50 is 5.18 µM (inactive) in [7]; > 54.5 µM (inactive) in assay [8]; > 52 µM (inactive) in [9]; > 55.8 µM (inactive) in assay [10]; > 100 µM (inactive) in assay [11]; 10.5 µM (inactive) in assay [12]. Moreover, the GI50 in assay [13] was > 46.5 µM (inactive); in assay [14], > 54.3 µM (inactive); in [15] it was > 52.1 µM (inactive); in [16], > 100 µM (inactive); in assay [17], > 60.1 µM (inactive); in assay [18] it was > 66.4 µM (inactive). In assay [19], the GI50 is > 78.3 µM (inactive).

For `Cc1cc(C)c2c(=O)n(CN3CC4Nc5ccccc5C4C3)sc2n1` (stereo unspecified), the GI50 in assay [1] was 38.5 µM (inactive); in assay [2], 26.1 µM (inactive); in assay [3] it was 26.9 µM (inactive); in assay [4] it was 21 µM; in [5], > 100 µM (inactive); in assay [6], 27.9 µM (inactive). The GI50 was > 100 µM (inactive) in assay [7]; 21.8 µM (inactive) in [8]; 18.7 µM (inactive) in assay [9]; 19.5 µM (inactive) in assay [10]; 20.8 µM (inactive) in assay [11]; 20.9 µM (inactive) in [12]. The GI50 is 21 µM (inactive) in assay [13]; 21 µM (inactive) in assay [14]; 14.8 µM (inactive) in assay [15]; > 100 µM (inactive) in assay [16]; 22.1 µM (inactive) in [17]; 56 µM (inactive) in assay [18]. In addition, the GI50 in assay [19] was 30.7 µM (inactive).
